# Data as given in patent US20170143748A1, “ANTI-TUMOR PHARMACEUTICAL APPLICATION OF PENTACYCLIC TRITERPENE SAPONIN COMPOUNDS OF SZECHUAN MELANDIUM ROOT” (priority 2014, published 2017).
# Experiments:
# Assay type in all cases: cell-based, Human
# HepG2 [1] = assay: Inhibitory activity and IC50 to HepG2 at different time of treatment (MTT, Example 4); settings: HepG2, 40 μg/ml
# Procedure: Human resources hepatoma cell line HepG2 was provided by Cancer Hospital, Chinese Academy of Medical Sciences. […] Cells were passaged every 2 or 3 days, and all the experiments were carried out on exponentially growing cells.
# Cells were harvested in good growth status and cell suspension was prepared with 2×10^4 cells/mL, added 100 μL per well of 96-well plates, and cultured for 24 h in the incubator. 100 μL liquid medium with no cell was added per well as blank group.
# 3 plates were used as parallel test to culture cells at different period.
# Before medication, supernatant of each well was removed and fresh 1640 medium was added, 180 μL per well. […] Wells of blank and model groups were added with 0.5% DMSO, 20 μL per well. After finished adding drugs, cells were incubated for 24 and 48 h respectively. At the end of incubation, 20 μL MTT was added per well […]. The supernatant was removed carefully and 150 μL DMSO was added per well. After shaken for 10 mins, the absorbance was read at 490 nm and the inhibition rate was calculated with the formula below.
# (§1) Inhibition rate=[(ODmodel−ODblank)−(ODdrugs−ODblank)]/(ODmodel−ODblank)×100%
# IC50 was calculated with Bliss method.
# (§2) The MTT experiment was repeated three times.
# HepG2 [2] = assay: MTT inhibition of tumor cells in vitro (Example 3); settings: 40 μg/mL, 48 hours
# BGC823 = assay: MTT inhibition of tumor cells in vitro (Example 3); settings: 40 μg/mL, 48 hours
# Procedure: (§3) Human resources tumor cell line […], […], HT29, MCF-7 and A875 were provided by Cancer Hospital, Chinese Academy of Medical Sciences.
# (§4) Cells were passaged every 2 or 3 days, and all the experiments were carried out on exponentially growing cells.
# (§5) All cells were cultured in a humidified atmosphere (5% CO2 and […]), and passaged every 2 or 3 days. Cells were harvested on exponentially growing phase, and cell suspension was prepared with 2×10^4 cells/mL, added with 100 μL per well of 96-well plates, and cultured for 24 h in incubator. 100 μL medium without cells was added per well as blank group.
# (§6) Compound (1), (2), (3), (4), (7) or (8) was dissolved in DMSO respectively, and diluted with 1640 medium at a final concentration of 400 μg/mL, so as to that of the Cisplatin. Cells were divided into 9 groups, they were blank group, model group, Compound (1), (2), (3), (4), (7) and (8) groups, and Cisplatin group as the positive one, 6 wells per group.
# (§7) Before drug administration, supernatant of each well was removed and fresh 1640 medium was added, 180 μL per well. Compounds and Cisplatin were added with 20 μL per well respectively at a final concentration of 40 μg/mL. Wells of blank and model groups were added with 0.5% DMSO, 20 μL per well. 48 hours later, 20 μL MTT was added per well and continued to culture for 4 hours, then the supernatant was replaced carefully and DMSO was added with 150 μL per well to end the experiment. The 96-well plates were shaken for 10 mins and read the absorbance at 490 nm. The Inhibition rate was calculated.
# as §1, §2
# HT29 = assay: MTT inhibition of tumor cells in vitro (Example 3); settings: 40 μg/mL, 48 hours
# Procedure: as §3, §4, §5, §6, §7, §1, §2
# MCF-7 = assay: MTT inhibition of tumor cells in vitro (Example 3); settings: 40 μg/mL, 48 hours
# Procedure: as §3, §4, §5, §6, §7, §1, §2
# A875 = assay: MTT inhibition of tumor cells in vitro (Example 3); settings: 40 μg/mL, 48 hours
# Procedure: as §3, §4, §5, §6, §7, §1, §2
smiles,measurement,setting,value
"N.N.[Cl][Pt][Cl] [Cisplatin, reference compound]",Inhibition rate,HepG2 [1]; 24 h,47.94 ± 6.328%
same,Inhibition rate,HepG2 [1]; 48 h,99.45 ± 0.36%
same,"Inhibition rate, HepG2",HepG2 [2],82.15 ± 4.05%
same,"Inhibition rate, BGC823",BGC823,97.86 ± 4.12%
same,"Inhibition rate, HT29",HT29,99.04 ± 1.15%
same,"Inhibition rate, MCF-7",MCF-7,97.53 ± 2.05%
same,"Inhibition rate, A875",A875,90.13 ± 1.98%
